Consider 27 compounds from US8871208B2, “11-β-hydroxysteroid dehydrogenase type 1 (11β-HSD1) inhibitors and uses thereof” (AbbVie Inc., priority 2009, dated 2014).

Molecules are shown by their SMILES. Where two headings read alike, the source gives them in different places.

The target in experiment [1] is T1, truncated human 11β-HSD-1 enzyme (24-287AA) (Homo sapiens, UniProt P28845).
T1 construct: truncated human 11β-HSD-1 enzyme (24-287AA); made in house; host or cells: E. coli (lysate)
The experiment is described as follows: Human 11β-HSD-1 enzymatic SPA assay. The class given is biochemical. Here is the method:
(§1) The ability of test compounds to inhibit human 11β-HSD-1 enzymatic activity in vitro was evaluated in a Scintillation Proximity Assay (SPA). […] The reaction was stopped by adding a non-specific 11β-HSD inhibitor, 18β-glycyrrhetinic acid. The tritiated cortisol was captured by a mixture of an anti-cortisol monoclonal antibody and SPA beads coated with anti-mouse antibodies. The reaction plate was shaken at room temperature and the radioactivity bound to SPA beads was then measured on a β-scintillation counter. The 11β-HSD-1 assay was carried out in 96-well microtiter plates in a total volume of 220 μl. […] In order to drive the reaction in the forward direction, 1 mM G-6-P was also added. Solid compound was dissolved in DMSO to make a 10 mM stock followed by a subsequent 10-fold dilution with 3% DMSO in Tris/EDTA buffer (pH 7.4). 22 μl of titrated compounds was then added in triplicate to the substrate. Reactions were initiated by the addition of 10 μl of 0.1 mg/ml E. coli lysates overexpressing 11β-HSD-1 enzyme. After shaking and incubating plates for 30 minutes at room temperature, reactions were stopped by adding 10 μl of 1 mM glycyrrhetinic acid. The product, tritiated cortisol, was captured by adding 10 μl of 1 μM monoclonal anti-cortisol antibodies and 100 μl SPA beads coated with anti-mouse antibodies. After shaking for 30 minutes, plates were read on a liquid scintillation counter Topcount. Percent inhibition was calculated based on the background and the maximal signal. Wells that contained substrate without compound or enzyme were used as the background, while the wells that contained substrate and enzyme without any compound were considered as maximal signal. Percent of inhibition of each compound was calculated relative to the maximal signal and IC50 curves were generated. This assay was applied to 11β-HSD-2 as well, whereby tritiated cortisol and NAD^+ were used as substrate and cofactor, respectively.

A further experiment concerns the target T2, human 11β-HSD-2 (Homo sapiens, UniProt P80365).
T2 sequence (P80365 1-405): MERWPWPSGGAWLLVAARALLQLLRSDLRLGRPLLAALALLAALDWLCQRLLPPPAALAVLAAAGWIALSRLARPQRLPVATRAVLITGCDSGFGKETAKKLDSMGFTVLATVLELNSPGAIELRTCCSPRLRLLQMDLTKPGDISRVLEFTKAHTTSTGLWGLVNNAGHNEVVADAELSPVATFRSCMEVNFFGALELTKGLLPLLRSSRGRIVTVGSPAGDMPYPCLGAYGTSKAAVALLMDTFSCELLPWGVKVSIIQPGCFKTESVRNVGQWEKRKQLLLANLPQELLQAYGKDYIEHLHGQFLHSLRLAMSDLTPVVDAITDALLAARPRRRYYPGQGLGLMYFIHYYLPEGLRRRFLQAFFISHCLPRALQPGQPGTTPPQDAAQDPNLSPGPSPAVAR
As to the kind of experiment: Human 11β-HSD-2 enzymatic SPA assay. The experiment is classed as biochemical. Here is the method: as §1

T1 sequence (P28845 24-287): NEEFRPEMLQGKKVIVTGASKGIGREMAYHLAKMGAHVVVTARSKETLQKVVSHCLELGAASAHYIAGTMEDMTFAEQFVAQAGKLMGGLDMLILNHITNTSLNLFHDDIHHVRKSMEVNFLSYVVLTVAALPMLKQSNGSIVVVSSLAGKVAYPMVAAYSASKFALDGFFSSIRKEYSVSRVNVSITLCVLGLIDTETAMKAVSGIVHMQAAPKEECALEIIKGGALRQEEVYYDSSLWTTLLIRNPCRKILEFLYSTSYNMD

By IC50 is commonly meant the concentration that gives 50% inhibition. Low values mean greater potency in that assay, high ones weaker potency in that assay. Regarding `CC1(C)C(=O)N(C2CCCCCC2)CC1COc1ccccc1` (centres unmarked) [1-cycloheptyl-3,3-dimethyl-4-(phenoxymethyl)pyrrolidin-2-one], the IC50 in experiment [1] (human enzyme, SPA) is 95 nM; against human 11β-HSD-2 (human enzyme, SPA) it was greater than 8750 nM.

As for `CN(CC1CN(C2CCCCCC2)C(=O)C1(C)C)c1ccccc1F` (centres unmarked) [1-cycloheptyl-4-{[(2-fluorophenyl)(methyl)amino]methyl}-3,3-dimethylpyrrolidin-2-one], the half-inhibitory concentration (IC50) in experiment [1] (human enzyme, SPA) is 73 nM; on human 11β-HSD-2 (human enzyme, SPA), greater than 10000 nM.

Regarding `CC(C)(Oc1ccc(Cl)cc1)C(=O)NC1C2CC3CC1CC(Cc1nn[nH]n1)(C3)C2` (centres unmarked) [2-(4-chlorophenoxy)-2-methyl-N-[(E)-5-(2H-tetraazol-5-ylmethyl)-2-adamantyl]propanamide], the IC50 was 41 nM in experiment [1] (human enzyme, SPA) and greater than 100000 nM against human 11β-HSD-2 (human enzyme, SPA).

As to `CC(C(=O)N[C@@H]1[C@@H]2C[C@@H]3C[C@H]1C[C@@](O)(C3)C2)N1C[C@@H](C)O[C@@H](C)C1` (stereo partly drawn) [2-[(cis)-2,6-dimethylmorpholin-4-yl]-N-[(E)-5-hydroxy-2-adamantyl]propanamide], the IC50 in experiment [1] (human enzyme, SPA) is 110 nM; at human 11β-HSD-2 (human enzyme, SPA), greater than 10000 nM.

Take `CC(C(=O)NC1C2CC3CC1CC(O)(C3)C2)N1CCCCCC1` (centres unmarked) [2-azepan-1-yl-N-[(E)-5-hydroxy-2-adamantyl]propanamide]: the IC50 is 92 nM in experiment [1] (human enzyme, SPA) and greater than 10000 nM against human 11β-HSD-2 (human enzyme, SPA).

With `CC(C)(Oc1ccc(Cl)cc1)C(=O)NC1C2CC3CC1CC(CS(=O)(=O)NCc1ccc(C(=O)O)cc1)(C3)C2` (centres unmarked) [4-[({[((E)-4-{[2-(4-chlorophenoxy)-2-methylpropanoyl]amino}-1-adamantyl)methyl]sulfonyl}amino)methyl]benzoic acid], the IC50 worked out at 48 nM in experiment [1] (human enzyme, SPA) and 18000 nM against human 11β-HSD-2 (human enzyme, SPA).

On to `CC12CCC(N3CC(COc4ccc(C#N)cn4)C(C)(C)C3=O)(CC1)CC2` (centres unmarked) [6-{[4,4-dimethyl-1-(4-methylbicyclo[2.2.2]oct-1-yl)-5-oxopyrrolidin-3-yl]methoxy}nicotinonitrile], for which the IC50 in experiment [1] (human enzyme, SPA) was 77 nM; at human 11β-HSD-2 (human enzyme, SPA), 8470 nM.

Regarding `CC1(C)C(=O)N(C2C3CCCC2CC(C(N)=O)C3)CC1COc1ccc(C#N)cn1` (centres unmarked) [9-(4-{[(5-cyanopyridin-2-yl)oxy]methyl}-3,3-dimethyl-2-oxopyrrolidin-1-yl)bicyclo[3.3.1]nonane-3-carboxamide], the IC50 is 51 nM in experiment [1] and 8280 nM against human 11β-HSD-2.

For `CC(C)(C(=O)N[C@@H]1[C@@H]2C[C@@H]3C[C@H]1C[C@@](C(=O)O)(C3)C2)c1ccccc1` [(E)-4-(2-methyl-2-phenyl-propionylamino)-adamantane-1-carboxylic acid], the IC50 in experiment [1] (human enzyme, SPA) is 82 nM; at human 11β-HSD-2 (human enzyme, SPA) it was greater than 10000 nM.

For the compound `CC1(C)C(=O)N(C2C3CC4CC2CC(C(N)=O)(C4)C3)CC1COc1ccc(-n2cncn2)cc1` (centres unmarked) [(E)-4-(3,3-dimethyl-2-oxo-4-{[4-(1H-1,2,4-triazol-1-yl)phenoxy]methyl}pyrrolidin-1-yl) adamantane-1-carboxamide], the IC50 in experiment [1] was 41 nM; on human 11β-HSD-2 (human enzyme, SPA) it was 1600 nM.

`CC1(C)C(=O)N(C2C3CC4CC2CC(C(N)=O)(C4)C3)CC1COc1ccc(-n2ccnc2)cc1` (centres unmarked) [(E)-4-(4-{[4-(1H-imidazol-1-yl)phenoxy]methyl}-3,3-dimethyl-2-oxopyrrolidin-1-yl)adamantane-1-carboxamide] displayed an IC50 in experiment [1] (human enzyme, SPA) of 76 nM.

Regarding `CC1(C)C(=O)N(C2C3CC4CC2CC(C#N)(C4)C3)CC1COc1ccc(C#N)cn1` (centres unmarked) [(E)-4-(4-{[(5-cyanopyridin-2-yl)oxy]methyl}-3,3-dimethyl-2-oxopyrrolidin-1-yl) adamantane-1-carbonitrile], the IC50 in experiment [1] (human enzyme, SPA) came to 29 nM; on human 11β-HSD-2 (human enzyme, SPA), 5270 nM.

On to `CC1(C(=O)N[C@@H]2[C@@H]3C[C@@H]4C[C@H]2C[C@@](C(N)=O)(C4)C3)CCN(Cc2ccccc2Cl)C1=O` (some centres unmarked) [(E)-4-(aminocarbonyl)-2-adamantyl]-1-(2-chlorobenzyl)-3-methyl-2-oxopyrrolidine-3-carboxamide], for which the IC50 was found to be 23 nM in experiment [1] (human enzyme, SPA) and 6300 nM against human 11β-HSD-2 (human enzyme, SPA).

Regarding `CC1(C(=O)N[C@@H]2[C@@H]3C[C@@H]4C[C@H]2C[C@@](C(N)=O)(C4)C3)CCN(Cc2cccc(Cl)c2)C1=O` (some centres unmarked) [(E)-4-(aminocarbonyl)-2-adamantyl]-1-(3-chlorobenzyl)-3-methyl-2-oxopyrrolidine-3-carboxamide], the IC50 at human 11β-HSD-2 (human enzyme, SPA) stood at 10000 nM.

In the case of `Cc1ccccc1CN1CCC(C)(C(=O)NC2C3CC4CC(C3)C(C(N)=O)C2C4)C1=O` (centres unmarked) [(E)-4-(aminocarbonyl)-2-adamantyl]-3-methyl-1-(2-methylbenzyl)-2-oxopyrrolidine-3-carboxamide], the IC50 in experiment [1] (human enzyme, SPA) amounted to 23 nM; on human 11β-HSD-2 (human enzyme, SPA), 12000 nM.

For `CC(C)(C(=O)NC1C2CC3CC1CC(C(=O)O)(C3)C2)N1CCC(F)C1` [(E)-4-({2-[(3R)-3-Fluoropyrrolidin-1-yl]-2-methylpropanoyl}amino)adamantane-1-carboxylic acid], the IC50 in experiment [1] (human enzyme, SPA) is 58 nM; at human 11β-HSD-2 (human enzyme, SPA), greater than 10000 nM.

As to `CC(C)(Oc1cccc(C(F)(F)F)c1)C(=O)NC1C2CC3CC1CC(C(N)=O)(C3)C2` (centres unmarked) [(E)-4-({2-methyl-2-[3-(trifluoromethyl)phenoxy]propanoyl}amino)adamantane-1-carboxamide], the 50% inhibitory concentration (IC50) in experiment [1] (human enzyme, SPA) was found to be 44 nM; against human 11β-HSD-2 (human enzyme, SPA), 11000 nM.

Consider `CC(C)(Oc1ccc(OC(F)(F)F)cc1)C(=O)NC1C2CC3CC1CC(C(N)=O)(C3)C2` (centres unmarked) [(E)-4-({2-methyl-2-[4-(trifluoromethoxy)phenoxy]propanoyl}amino)adamantane-1-carboxamide], for which the IC50 in experiment [1] (human enzyme, SPA) stood at 40 nM; on human 11β-HSD-2 (human enzyme, SPA) it was 2600 nM.

`CC1CN(c2ccccn2)CCN1C(C)(C)C(=O)NC1C2CC3CC1CC(C(=O)O)(C3)C2` [(E)-4-({2-methyl-2-[(2S)-2-methyl-4-pyridin-2-ylpiperazin-1-yl]propanoyl}amino) adamantane-1-carboxylic acid] showed an IC50 against human 11β-HSD-2 (human enzyme, SPA) greater than 30000 nM.

On to `NC(=O)C12CC3CC(C1)C(NC(=O)C1(Oc4ccc(Cl)cc4)CCC1)C(C3)C2` (centres unmarked) [(E)-4-({[1-(4-chlorophenoxy)cyclobutyl]carbonyl}amino)adamantane-1-carboxamide], for which the IC50 in experiment [1] (human enzyme, SPA) turned out to be 89 nM; at human 11β-HSD-2 (human enzyme, SPA), 90000 nM.

For `NC(=O)[C@]12C[C@@H]3C[C@H](C1)[C@@H](NC(=O)C1(c4ccc(Cl)cc4)CC1)[C@@H](C3)C2` [(E)-4-({[1-(4-chlorophenyl)cyclopropyl]carbonyl}amino)adamantane-1-carboxamide], the IC50 in experiment [1] (human enzyme, SPA) is 33 nM; against human 11β-HSD-2 (human enzyme, SPA) it was greater than 30000 nM.

As to `CC1(C)C(=O)N(C2C3CC4CC2CC(C(N)=O)(C4)C3)CC1COc1ccc(C(F)(F)F)cn1` (centres unmarked) [(E)-4-[3,3-dimethyl-2-oxo-4-({[5-(trifluoromethyl)pyridin-2-yl]oxy}methyl)pyrrolidin-1-yl]adamantane-1-carboxamide], the IC50 was 39 nM in experiment [1] (human enzyme, SPA) and 1360 nM against human 11β-HSD-2 (human enzyme, SPA).

In experiment [1] (human enzyme, SPA), `O=C(O)C12CC3CC(C1)C(NC(=O)C1(c4ccccc4)CC1)C(C3)C2` (centres unmarked) [(E)-4-[(1-phenyl-cyclopropanecarbonyl)-amino]-adamantane-1-carboxylic acid] registered an IC50 of 102 nM. In other words, the sub-micromolar range.

On to `CC(C)(OCc1ccc(C(F)(F)F)cc1)C(=O)N[C@@H]1[C@@H]2C[C@@H]3C[C@H]1C[C@@](C(N)=O)(C3)C2` [(E)-4-[(2-methyl-2-{[4-(trifluoromethyl)benzyl]oxy}propanoyl)amino]adamantane-1-carboxamide], for which the IC50 is 28 nM in experiment [1] (human enzyme, SPA) and greater than 10000 nM at human 11β-HSD-2 (human enzyme, SPA).

At human 11β-HSD-2 (human enzyme, SPA), `CC(C)(C(=O)N[C@@H]1[C@@H]2C[C@@H]3C[C@H]1C[C@@](C(N)=O)(C3)C2)c1ccc(-c2cccnc2)cc1` [(E)-4-{[2-methyl-2-(4-pyridin-3-ylphenyl)propanoyl]amino}adamantane-1-carboxamide] displayed an IC50 of 44000 nM.

Take `CC(C)(Oc1ccc(Cl)cc1)C(=O)N[C@@H]1[C@@H]2C[C@@H]3C[C@H]1C[C@@](CS(N)(=O)=O)(C3)C2` [N-{(E)-5-[(aminosulfonyl)methyl]-2-adamantyl}-2-(4-chlorophenoxy)-2-methyl propanamide]: in experiment [1] (human enzyme, SPA), the IC50 is 96 nM.

As to `CC(C)(C)OC(=O)Nc1ccc(OC(C)(C)C(=O)N[C@@H]2[C@@H]3C[C@@H]4C[C@H]2C[C@@](C(N)=O)(C4)C3)cc1` [tert-butyl 4-(2-{[(E)-5-(aminocarbonyl)-2-adamantyl]amino}-1,1-dimethyl-2-oxoethoxy)phenylcarbamate], the IC50 against human 11β-HSD-2 (human enzyme, SPA) was found to be 37000 nM.
